Molecules are shown by their SMILES. Non-standard residues stand in square brackets, D forms with d. Residues, ends and D or L forms follow the SMILES beside them. *: point of attachment. Morpholine(3S-CO) = O=C(O)[C@@H]1COCCN1; 2Nal = N[C@@H](Cc1ccc2ccccc2c1)C(=O)O; NMeY = CN[C@@H](Cc1ccc(O)cc1)C(=O)O; NMeE = CN[C@@H](CCC(=O)O)C(=O)O; pS = N[C@@H](COP(=O)(O)O)C(=O)O; Cit = NC(=O)NCCC[C@H](N)C(=O)O; aThr = C[C@H](O)[C@H](N)C(=O)O; Pip = O=C(O)[C@@H]1CCCCN1; Acryloyl = C=CC(=O)*; ClAc = O=C(CCl)* Bounds are passed on as bounds.

For this test, the target named is Pin1 (GST-Pin1) (Homo sapiens, UniProt Q13526). The experiment in a line: Fluorescence polarization (FP) assay, binding to Pin1. The settings on record: competition with fluorescein-labeled peptide probe; 12 hours pre-incubation at 4° C.; Kenakin Ki equation; read-out: Ki, μM (FP Assay). (In fluorescence polarisation assays a small probe gives low polarisation when free and higher when bound to something large.)
Pin1 (GST-Pin1), sequence (Q13526 whole entry): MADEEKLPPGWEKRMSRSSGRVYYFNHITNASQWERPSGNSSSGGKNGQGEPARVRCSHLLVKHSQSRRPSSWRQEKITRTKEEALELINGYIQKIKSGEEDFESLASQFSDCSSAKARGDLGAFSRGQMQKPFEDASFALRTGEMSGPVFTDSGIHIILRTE

In the case of `C[C@H](O)[C@H](NC(=O)CCl)C(=O)N1CCCC[C@H]1C(=O)N[C@@H](Cc1c[nH]c2ccccc12)C(=O)N[C@@H](CCCNC(N)=O)C(N)=O` [Compound 2-20, (S)—N—((S)-1-(((S)-1-Amino-1-oxo-5-ureidopentan-2-yl)amino)-3-(1H-indol-3-yl)-1-oxopropan-2-yl)-1-((2-chloroacetyl)-L-allothreonyl)piperidine-2-carboxamide] (ClAc-[aThr][Pip]W[Cit]-NH2), the Ki (usually the dissociation constant of the complex between target and ligand, obtained from inhibition or displacement) is 0.122 µM.

Regarding `NC(=O)NCCC[C@H](NC(=O)[C@H](Cc1c[nH]c2ccccc12)NC(=O)[C@@H]1CCCCN1C(=O)[C@H](COP(=O)(O)O)NC(=O)CCl)C(N)=O` [Compound 2-21, (S)-3-((S)-2-(((S)-1-(((S)-1-Amino-1-oxo-5-ureidopentan-2-yl)amino)-3-(1H-indol-3-yl)-1-oxopropan-2-yl)carbamoyl)piperidin-1-yl)-2-(2-chloroacetamido)-3-oxopropyl dihydrogen phosphate] (ClAc-[pS][Pip]W[Cit]-NH2), the Ki was found to be 0.004 µM. For `COC(=O)CC[C@H](NC(=O)CCl)C(=O)N1CCCC[C@H]1C(=O)N[C@@H](Cc1c[nH]c2ccccc12)C(=O)N[C@@H](Cc1ccccc1)C(N)=O` [Compound 2-23, Methyl (S)-5-((S)-2-(((S)-1-(((S)-1-Amino-1-oxo-3-phenylpropan-2-yl)amino)-3-(1H-indol-3-yl)-1-oxopropan-2-yl)carbamoyl)piperidin-1-yl)-4-(2-chloroacetamido)-5-oxopentanoate] (ClAc-E(OMe)[Pip]WF-NH2), the Ki is 0.231 µM. The same measure for `COC(=O)CC[C@H](NC(=O)CCl)C(=O)N1CCCC[C@H]1C(=O)N[C@@H](Cc1c[nH]c2ccccc12)C(=O)N[C@@H](Cc1ccc2ccccc2c1)C(N)=O` [Compound 2-24, Methyl (S)-5-((S)-2-(((S)-1-(((S)-1-Amino-3-(naphthalen-2-yl)-1-oxopropan-2-yl)amino)-3-(1H-indol-3-yl)-1-oxopropan-2-yl)carbamoyl)piperidin-1-yl)-4-(2-chloroacetamido)-5-oxopentanoate] (ClAc-E(OMe)[Pip]W[2Nal]-NH2): 0.525 µM; for `C[C@H](O)[C@H](NC(=O)CCl)C(=O)N1CCCC[C@H]1C(=O)N[C@@H](Cc1c[nH]c2ccccc12)C(=O)N[C@@H](Cc1ccc(O)cc1)C(N)=O` [Compound 2-26, (S)—N—((S)-1-(((S)-1-Amino-3-(4-hydroxyphenyl)-1-oxopropan-2-yl)amino)-3-(1H-indol-3-yl)-1-oxopropan-2-yl)-1-((2-chloroacetyl)-L-allothreonyl)piperidine-2-carboxamide] (ClAc-[aThr][Pip]WY-NH2): 0.299 µM.

For the compound `COC(=O)CC[C@H](NC(=O)CCl)C(=O)N1CCCC[C@H]1C(=O)N[C@@H](Cc1c[nH]c2ccccc12)C(=O)N(C)[C@@H](Cc1ccc(O)cc1)C(N)=O` [Compound 2-28, Methyl (S)-5-((S)-2-(((S)-1-(((S)-1-amino-3-(4-hydroxyphenyl)-1-oxopropan-2-yl)(methyl)-amino)-3-(1H-indol-3-yl)-1-oxopropan-2-yl)carbamoyl)piperidin-1-yl)-4-(2-chloroacetamido)-5-oxopentanoate] (ClAc-E(OMe)[Pip]W[NMeY]-NH2), the Ki was over 10 µM.

In the case of `CN(C(=O)CCl)[C@@H](CCC(=O)O)C(=O)N1CCCC[C@H]1C(=O)N[C@@H](Cc1c[nH]c2ccccc12)C(=O)N[C@@H](Cc1ccc(O)cc1)C(N)=O` [Compound 2-31, (S)-5-((S)-2-(((S)-1-(((S)-1-Amino-3-(4-hydroxyphenyl)-1-oxopropan-2-yl)amino)-3-(1H-indol-3-yl)-1-oxopropan-2-yl)carbamoyl)piperidin-1-yl)-4-(2-chloro-N-methylacetamido)-5-oxopentanoic acid] (ClAc-[NMeE][Pip]WY-NH2), the Ki was 0.07 µM. Then `CC(=O)N[C@@H](CCC(=O)O)C(=O)N1CCCC[C@H]1C(=O)N[C@@H](Cc1c[nH]c2ccccc12)C(=O)N[C@@H](CCCNC(N)=O)C(N)=O` [Compound 2-33, (S)-4-Acetamido-5-((S)-2-(((S)-1-(((S)-1-amino-1-oxo-5-ureidopentan-2-yl)amino)-3-(1H-indol-3-yl)-1-oxopropan-2-yl)carbamoyl)piperidin-1-yl)-5-oxopentanoic acid] (Ac-E[Pip]W[Cit]-NH2), with over 10 µM; and `C=CC(=O)N[C@H](CC(=O)O)C(=O)N1CCCC[C@H]1C(=O)N[C@@H](Cc1ccc2ccccc2c1)C(=O)N[C@@H](CCC(N)=O)C(N)=O` [Compound 2-34, (R)-3-Acrylamido-4-((S)-2-(((S)-1-(((S)-1,5-diamino-1,5-dioxopentan-2-yl)amino)-3-(naphthalen-2-yl)-1-oxopropan-2-yl)carbamoyl)piperidin-1-yl)-4-oxobutanoic acid] (Acryloyl-[dD][Pip][2Nal]Q-NH2), with over 10 µM; and `C=CC(=O)N[C@@H](CC(=O)O)C(=O)N1CCCC[C@H]1C(=O)N[C@@H](Cc1ccc2ccccc2c1)C(=O)N[C@@H](CCC(N)=O)C(N)=O` [Compound 2-35, (S)-3-Acrylamido-4-((S)-2-(((S)-1-(((S)-1,5-diamino-1,5-dioxopentan-2-yl)amino)-3-(naphthalen-2-yl)-1-oxopropan-2-yl)carbamoyl)piperidin-1-yl)-4-oxobutanoic acid] (Acryloyl-D[Pip][2Nal]Q-NH2), with over 10 µM.

With `C=CC(=O)N[C@@H](CCC(=O)O)C(=O)N1CCCC[C@H]1C(=O)N[C@@H](Cc1ccc2ccccc2c1)C(=O)N[C@@H](CCC(N)=O)C(N)=O` [Compound 2b-1, (S)-4-Acrylamido-5-((S)-2-(((S)-1-(((S)-1,5-diamino-1,5-dioxopentan-2-yl)amino)-3-(naphthalen-2-yl)-1-oxopropan-2-yl)carbamoyl)piperidin-1-yl)-5-oxopentanoic acid] (Acryloyl-E[Pip][2Nal]Q-NH2), the inhibitory constant (Ki) is over 10 µM.

For the compound `C=CC(=O)N[C@H](CCC(=O)O)C(=O)N1CCCC[C@H]1C(=O)N[C@@H](Cc1ccc2ccccc2c1)C(=O)N[C@@H](CCC(N)=O)C(N)=O` [Compound 2b-2, (R)-4-Acrylamido-5-((S)-2-(((S)-1-(((S)-1,5-diamino-1,5-dioxopentan-2-yl)amino)-3-(naphthalen-2-yl)-1-oxopropan-2-yl)carbamoyl)piperidin-1-yl)-5-oxopentanoic acid] (Acryloyl-[dE][Pip][2Nal]Q-NH2), the Ki was over 10 µM. Then `NC(=O)CC[C@H](NC(=O)[C@H](Cc1ccc2ccccc2c1)NC(=O)[C@@H]1CCCCN1C(=O)[C@@H](CCC(=O)O)NC(=O)CCl)C(N)=O` [Compound 2b-4, (R)-4-(2-Chloroacetamido)-5-((S)-2-(((S)-1-(((S)-1,5-diamino-1,5-dioxopentan-2-yl)amino)-3-(naphthalen-2-yl)-1-oxopropan-2-yl)carbamoyl)piperidin-1-yl)-5-oxopentanoic acid] (ClAc-[dE][Pip][2Nal]Q-NH2), with over 10 µM. Regarding `NC(=O)CC[C@H](NC(=O)[C@H](Cc1ccc2ccccc2c1)NC(=O)[C@@H]1COCCN1C(=O)[C@H](CCC(=O)O)NC(=O)CCl)C(N)=O` [Compound 2b-5, (S)-4-(2-Chloroacetamido)-5-((S)-3-(((S)-1-(((S)-1,5-diamino-1,5-dioxopentan-2-yl)amino)-3-(naphthalen-2-yl)-1-oxopropan-2-yl)carbamoyl)morpholino)-5-oxopentanoic acid] (ClAc-E[Morpholine(3S-CO)][2Nal]Q-NH2), the Ki is over 10 µM.
